Experiments:
Assay in all cases: KINOMEscan
Format in all cases: binding
[1] = biological target: PIK3CD (Homo sapiens (Human), UniProt O00329); conditions: read-out: percent control
Excerpt: (§1) Example 2. In Vitro Kinase Selectivity Profiling of the Compounds of the Present Disclosure

[2] = biological target: GAK (Homo sapiens (Human), UniProt O14976); conditions: read-out: percent control
Excerpt: as §1

[3] = biological target: ARK5 (Homo sapiens (Human), UniProt O60285); conditions: read-out: percent control
Excerpt: as §1

[4] = biological target: MEK5 (Homo sapiens (Human), UniProt Q13163); conditions: read-out: percent control
Excerpt: as §1

[5] = biological target: DCAMKL3 (Homo sapiens (Human), UniProt Q9C098); conditions: read-out: percent control
Excerpt: as §1

[6] = biological target: JNK1 (Homo sapiens (Human), UniProt P45983); conditions: read-out: percent control
Excerpt: as §1

[7] = biological target: PFCDPK1(P.falciparum) (Plasmodium falciparum (isolate 3D7), UniProt P62344); conditions: read-out: percent control
Excerpt: as §1

[8] = biological target: PFPK5(P.falciparum) (Plasmodium falciparum (isolate 3D7), UniProt P61075); conditions: read-out: percent control
Excerpt: as §1

[9] = biological target: RPS6KA4(Kin.Dom.2-terminal) (Homo sapiens (Human), UniProt O75676); conditions: read-out: percent control
Excerpt: as §1

[10] = biological target: DDR2 (Homo sapiens (Human), UniProt Q16832); conditions: read-out: percent control
Excerpt: as §1

[11] = biological target: BMX (Homo sapiens (Human), UniProt P51813); conditions: read-out: percent control
Excerpt: as §1

[12] = biological target: CSNK1G3 (Homo sapiens (Human), UniProt Q9Y6M4); conditions: read-out: percent control
Excerpt: as §1

[13] = biological target: MAP4K4 (Homo sapiens (Human), UniProt O95819); conditions: read-out: percent control
Excerpt: as §1

[14] = biological target: JNK3 (Homo sapiens (Human), UniProt P53779); conditions: read-out: percent control
Excerpt: as §1

[15] = biological target: EPHA5 (Homo sapiens (Human), UniProt P54756); conditions: read-out: percent control
Excerpt: as §1

[16] = biological target: PAK2 (Homo sapiens (Human), UniProt Q13177); conditions: read-out: percent control
Excerpt: as §1

[17] = biological target: ABL1(M351T)-phosphorylated (Homo sapiens (Human), UniProt P00519, M351T); conditions: read-out: percent control
Excerpt: as §1

[18] = tested on: FLT3(ITD, F691L); conditions: 1 μM
Excerpt: as §1

[19] = biological target: MERTK (Homo sapiens (Human), UniProt Q12866); conditions: read-out: percent control
Excerpt: as §1

[20] = biological target: PIK3CA(I800L) (Homo sapiens (Human), UniProt P42336, I800L); conditions: read-out: percent control
Excerpt: as §1

[21] = biological target: EGFR(L858R, T790M) (Homo sapiens (Human), UniProt P00533, L858R/T790M); conditions: read-out: percent control
Excerpt: as §1

[22] = biological target: CAMK2G (Homo sapiens (Human), UniProt Q13555); conditions: read-out: percent control
Excerpt: as §1

[23] = biological target: MYLK2 (Homo sapiens (Human), UniProt Q9H1R3); conditions: read-out: percent control
Excerpt: as §1

[24] = biological target: PLK1 (Homo sapiens (Human), UniProt P53350); conditions: read-out: percent control
Excerpt: as §1

[25] = biological target: AURKC (Homo sapiens (Human), UniProt Q9UQB9); conditions: read-out: percent control
Excerpt: as §1

[26] = biological target: ABL1(F317L)-nonphosphorylated (Homo sapiens (Human), UniProt P00519, F317L); conditions: read-out: percent control
Excerpt: as §1

[27] = biological target: SRPK3 (Homo sapiens (Human), UniProt Q9UPE1); conditions: read-out: percent control
Excerpt: as §1

[28] = biological target: CDK7 (Homo sapiens (Human), UniProt P50613); conditions: read-out: percent control
Excerpt: as §1

[29] = biological target: DLK (Homo sapiens (Human), UniProt Q12852); conditions: read-out: percent control
Excerpt: as §1

[30] = biological target: CSNK1G1 (Homo sapiens (Human), UniProt Q9HCP0); conditions: read-out: percent control
Excerpt: as §1

[31] = biological target: KIT(V559D, T670I) (Homo sapiens (Human), UniProt P10721, T670I/V559D); conditions: read-out: percent control
Excerpt: as §1

[32] = biological target: CDC2L2 (Homo sapiens (Human), UniProt Q9UQ88); conditions: read-out: percent control
Excerpt: as §1

[33] = biological target: CLK2 (Homo sapiens (Human), UniProt P49760); conditions: read-out: percent control
Excerpt: as §1

[34] = biological target: MEK1 (Homo sapiens (Human), UniProt Q02750); conditions: read-out: percent control
Excerpt: as §1

[35] = biological target: DAPK3 (Homo sapiens (Human), UniProt O43293); conditions: read-out: percent control
Excerpt: as §1

[36] = biological target: MAP3K1 (Homo sapiens (Human), UniProt Q13233); conditions: read-out: percent control
Excerpt: as §1

[37] = biological target: SBK1 (Homo sapiens (Human), UniProt Q52WX2); conditions: read-out: percent control
Excerpt: as §1

[38] = biological target: CAMK1 (Homo sapiens (Human), UniProt Q14012); conditions: read-out: percent control
Excerpt: as §1

[39] = biological target: ALK(L1196M) (Homo sapiens (Human), UniProt Q9UM73, L1196M); conditions: read-out: percent control
Excerpt: as §1

[40] = biological target: NEK1 (Homo sapiens (Human), UniProt Q96PY6); conditions: read-out: percent control
Excerpt: as §1

Chain of CDC2L2 (Q9UQ88 whole entry): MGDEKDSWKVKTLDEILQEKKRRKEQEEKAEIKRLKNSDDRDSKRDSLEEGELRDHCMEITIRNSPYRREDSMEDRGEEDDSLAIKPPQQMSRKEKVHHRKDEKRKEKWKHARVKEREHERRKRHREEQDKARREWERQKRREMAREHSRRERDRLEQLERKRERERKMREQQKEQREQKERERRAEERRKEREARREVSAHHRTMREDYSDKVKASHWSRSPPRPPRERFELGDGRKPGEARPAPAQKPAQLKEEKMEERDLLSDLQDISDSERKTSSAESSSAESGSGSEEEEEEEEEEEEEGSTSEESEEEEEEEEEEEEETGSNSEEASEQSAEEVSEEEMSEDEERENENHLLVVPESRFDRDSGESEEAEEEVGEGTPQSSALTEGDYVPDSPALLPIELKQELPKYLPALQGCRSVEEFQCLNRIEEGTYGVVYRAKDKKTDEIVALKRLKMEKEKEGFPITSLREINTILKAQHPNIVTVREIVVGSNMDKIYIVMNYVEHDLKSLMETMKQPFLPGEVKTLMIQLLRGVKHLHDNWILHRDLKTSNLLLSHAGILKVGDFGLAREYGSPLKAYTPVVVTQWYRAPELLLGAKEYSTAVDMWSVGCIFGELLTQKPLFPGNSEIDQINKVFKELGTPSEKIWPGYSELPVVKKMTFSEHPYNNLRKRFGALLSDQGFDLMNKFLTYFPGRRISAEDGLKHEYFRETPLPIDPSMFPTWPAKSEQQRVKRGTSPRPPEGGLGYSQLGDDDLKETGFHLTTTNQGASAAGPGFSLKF
Chain of JNK3 (P53779 whole entry): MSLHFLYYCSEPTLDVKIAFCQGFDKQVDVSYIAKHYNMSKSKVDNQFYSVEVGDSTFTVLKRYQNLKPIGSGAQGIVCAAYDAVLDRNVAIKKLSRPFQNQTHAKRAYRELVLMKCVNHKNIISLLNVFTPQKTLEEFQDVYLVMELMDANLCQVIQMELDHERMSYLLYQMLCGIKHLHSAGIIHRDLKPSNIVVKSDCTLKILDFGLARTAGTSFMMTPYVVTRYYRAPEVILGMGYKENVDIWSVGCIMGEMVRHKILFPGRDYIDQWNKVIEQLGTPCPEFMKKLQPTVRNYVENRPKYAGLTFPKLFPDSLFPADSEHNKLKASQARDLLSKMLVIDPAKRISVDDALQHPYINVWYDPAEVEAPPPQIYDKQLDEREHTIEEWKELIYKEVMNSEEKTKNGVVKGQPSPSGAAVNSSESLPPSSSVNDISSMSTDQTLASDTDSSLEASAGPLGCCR
Chain of DCAMKL3 (Q9C098 whole entry, looked up): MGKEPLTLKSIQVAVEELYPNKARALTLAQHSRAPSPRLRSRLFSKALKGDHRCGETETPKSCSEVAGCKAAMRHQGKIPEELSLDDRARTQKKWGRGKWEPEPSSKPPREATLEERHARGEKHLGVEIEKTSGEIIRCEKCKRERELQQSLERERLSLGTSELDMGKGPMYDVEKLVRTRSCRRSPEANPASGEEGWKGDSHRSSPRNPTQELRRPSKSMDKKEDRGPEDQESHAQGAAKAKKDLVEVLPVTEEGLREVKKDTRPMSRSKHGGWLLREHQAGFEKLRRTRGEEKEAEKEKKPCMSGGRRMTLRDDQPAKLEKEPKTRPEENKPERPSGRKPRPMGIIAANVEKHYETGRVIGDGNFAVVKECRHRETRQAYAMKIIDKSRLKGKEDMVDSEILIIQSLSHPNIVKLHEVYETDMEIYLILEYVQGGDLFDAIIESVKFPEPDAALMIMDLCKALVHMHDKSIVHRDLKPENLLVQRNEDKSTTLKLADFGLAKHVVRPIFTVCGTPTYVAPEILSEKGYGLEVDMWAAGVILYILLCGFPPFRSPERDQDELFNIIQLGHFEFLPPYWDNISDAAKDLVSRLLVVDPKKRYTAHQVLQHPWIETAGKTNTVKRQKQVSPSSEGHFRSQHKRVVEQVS
Chain of SRPK3 (Q9UPE1 whole entry): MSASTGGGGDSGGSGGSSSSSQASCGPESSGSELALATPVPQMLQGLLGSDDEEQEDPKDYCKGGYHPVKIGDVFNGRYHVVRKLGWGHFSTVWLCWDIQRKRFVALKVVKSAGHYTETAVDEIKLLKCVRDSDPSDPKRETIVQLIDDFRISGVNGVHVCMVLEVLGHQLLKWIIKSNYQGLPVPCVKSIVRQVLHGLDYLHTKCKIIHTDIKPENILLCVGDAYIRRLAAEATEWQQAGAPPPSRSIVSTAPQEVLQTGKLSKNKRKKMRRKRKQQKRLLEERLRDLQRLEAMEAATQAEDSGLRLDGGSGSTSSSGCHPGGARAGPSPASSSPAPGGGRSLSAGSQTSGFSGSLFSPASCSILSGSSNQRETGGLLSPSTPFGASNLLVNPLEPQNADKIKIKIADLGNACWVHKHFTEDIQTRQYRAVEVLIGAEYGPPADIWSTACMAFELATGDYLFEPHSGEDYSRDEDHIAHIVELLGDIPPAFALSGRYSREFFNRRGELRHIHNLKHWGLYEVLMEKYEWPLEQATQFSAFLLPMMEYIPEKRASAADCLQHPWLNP
Chain of DDR2 (Q16832 22-855): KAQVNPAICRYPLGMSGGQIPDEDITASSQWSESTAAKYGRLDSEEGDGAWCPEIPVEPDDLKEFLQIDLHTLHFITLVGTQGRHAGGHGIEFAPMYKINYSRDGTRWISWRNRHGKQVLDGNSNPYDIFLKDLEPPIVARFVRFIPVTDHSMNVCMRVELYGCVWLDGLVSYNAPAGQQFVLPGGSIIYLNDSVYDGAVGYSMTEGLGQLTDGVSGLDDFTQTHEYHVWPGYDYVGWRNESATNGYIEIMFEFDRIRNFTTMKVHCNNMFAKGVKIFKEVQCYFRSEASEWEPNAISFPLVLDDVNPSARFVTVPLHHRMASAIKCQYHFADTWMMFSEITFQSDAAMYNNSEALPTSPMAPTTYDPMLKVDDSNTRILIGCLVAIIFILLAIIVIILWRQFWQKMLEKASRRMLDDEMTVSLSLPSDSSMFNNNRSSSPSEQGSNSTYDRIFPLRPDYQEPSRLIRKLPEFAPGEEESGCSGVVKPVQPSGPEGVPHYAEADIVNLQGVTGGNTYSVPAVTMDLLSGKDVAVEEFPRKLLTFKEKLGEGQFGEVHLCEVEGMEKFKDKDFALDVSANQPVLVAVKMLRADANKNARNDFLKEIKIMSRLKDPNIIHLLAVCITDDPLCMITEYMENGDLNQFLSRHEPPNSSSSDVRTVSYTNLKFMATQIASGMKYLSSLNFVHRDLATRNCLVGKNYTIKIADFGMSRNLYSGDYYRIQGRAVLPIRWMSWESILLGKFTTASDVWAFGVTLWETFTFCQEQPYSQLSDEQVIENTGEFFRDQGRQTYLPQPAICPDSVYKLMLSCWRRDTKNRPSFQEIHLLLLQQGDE
Chain of PIK3CA(I800L) (P42336 whole entry I800L): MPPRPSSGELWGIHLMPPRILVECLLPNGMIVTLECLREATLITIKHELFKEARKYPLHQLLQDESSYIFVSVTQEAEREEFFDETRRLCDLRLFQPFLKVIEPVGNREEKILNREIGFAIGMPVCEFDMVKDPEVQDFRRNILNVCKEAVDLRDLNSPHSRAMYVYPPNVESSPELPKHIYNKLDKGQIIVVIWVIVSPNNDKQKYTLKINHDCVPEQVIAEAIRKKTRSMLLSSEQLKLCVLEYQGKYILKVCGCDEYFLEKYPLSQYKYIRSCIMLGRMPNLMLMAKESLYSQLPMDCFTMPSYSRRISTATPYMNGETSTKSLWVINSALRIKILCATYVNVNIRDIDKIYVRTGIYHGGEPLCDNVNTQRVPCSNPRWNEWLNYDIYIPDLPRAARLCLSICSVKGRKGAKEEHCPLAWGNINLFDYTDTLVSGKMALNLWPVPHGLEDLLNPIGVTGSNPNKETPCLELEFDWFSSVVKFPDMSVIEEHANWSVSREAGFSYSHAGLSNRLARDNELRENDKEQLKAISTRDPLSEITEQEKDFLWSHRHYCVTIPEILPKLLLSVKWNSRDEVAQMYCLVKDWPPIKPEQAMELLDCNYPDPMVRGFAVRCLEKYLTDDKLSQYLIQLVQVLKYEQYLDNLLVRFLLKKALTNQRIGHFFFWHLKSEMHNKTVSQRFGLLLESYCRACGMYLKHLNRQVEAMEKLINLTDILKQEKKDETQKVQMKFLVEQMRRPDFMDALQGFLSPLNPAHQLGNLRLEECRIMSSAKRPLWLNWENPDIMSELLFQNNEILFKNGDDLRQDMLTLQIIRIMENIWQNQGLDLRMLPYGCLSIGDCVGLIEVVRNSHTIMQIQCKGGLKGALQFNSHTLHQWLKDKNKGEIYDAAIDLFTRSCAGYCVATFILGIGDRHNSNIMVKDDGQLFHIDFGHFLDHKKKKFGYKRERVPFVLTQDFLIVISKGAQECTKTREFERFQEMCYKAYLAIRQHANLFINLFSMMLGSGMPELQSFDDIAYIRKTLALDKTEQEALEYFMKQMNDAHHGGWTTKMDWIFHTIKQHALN
Chain of PLK1 (P53350 whole entry): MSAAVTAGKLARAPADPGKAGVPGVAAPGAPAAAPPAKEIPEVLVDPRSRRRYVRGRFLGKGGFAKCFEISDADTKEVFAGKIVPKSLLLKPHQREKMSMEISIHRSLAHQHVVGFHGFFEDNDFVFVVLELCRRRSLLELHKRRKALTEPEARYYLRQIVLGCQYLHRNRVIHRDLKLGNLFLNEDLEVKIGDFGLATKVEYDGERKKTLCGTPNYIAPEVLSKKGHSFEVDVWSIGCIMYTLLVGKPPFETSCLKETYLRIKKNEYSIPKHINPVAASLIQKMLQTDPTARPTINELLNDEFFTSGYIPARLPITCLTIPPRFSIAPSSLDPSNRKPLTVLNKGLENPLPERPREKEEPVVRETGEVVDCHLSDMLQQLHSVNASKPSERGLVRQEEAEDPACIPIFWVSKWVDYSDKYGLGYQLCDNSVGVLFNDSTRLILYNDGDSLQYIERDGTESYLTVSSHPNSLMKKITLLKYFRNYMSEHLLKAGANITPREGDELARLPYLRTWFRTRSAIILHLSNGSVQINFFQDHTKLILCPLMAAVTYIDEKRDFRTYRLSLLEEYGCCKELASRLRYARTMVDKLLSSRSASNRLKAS

Structure (SMILES)	remaining binding at 1 µM [1] [%]	remaining binding at 1 µM [2] [%]	remaining binding at 1 µM [3] [%]	remaining binding at 1 µM [4] [%]	remaining binding at 1 µM [5] [%]	remaining binding at 1 µM [6] [%]	remaining binding at 1 µM [7] [%]	remaining binding at 1 µM [8] [%]	remaining binding at 1 µM [9] [%]	remaining binding at 1 µM [10] [%]	remaining binding at 1 µM [11] [%]	remaining binding at 1 µM [12] [%]	remaining binding at 1 µM [13] [%]	remaining binding at 1 µM [14] [%]	remaining binding at 1 µM [15] [%]	remaining binding at 1 µM [16] [%]	remaining binding at 1 µM [17] [%]	percent control [18] [%]	remaining binding at 1 µM [19] [%]	remaining binding at 1 µM [20] [%]	further results
CCN1CCN(Cc2ccc(Nc3nc4ccc(Oc5ccnc(NC(C)=O)c5)cc4n3C)cc2C(F)(F)F)CC1 [Compound I-2]	72	100	100	59	85	79	77	100	88	0	100	89	100	100	98	97	37	34	32	75	remaining binding at 1 µM [21]: 100%; remaining binding at 1 µM [22]: 100%; remaining binding at 1 µM [23]: 100%; remaining binding at 1 µM [24]: 100%; remaining binding at 1 µM [25]: 19%; remaining binding at 1 µM [26]: 9%; remaining binding at 1 µM [27]: 100%; remaining binding at 1 µM [28]: 45%; remaining binding at 1 µM [29]: 100%; remaining binding at 1 µM [30]: 100%; remaining binding at 1 µM [31]: 1.2%; remaining binding at 1 µM [32]: 0.1%; remaining binding at 1 µM [33]: 64%; remaining binding at 1 µM [34]: 94%; remaining binding at 1 µM [35]: 76%; remaining binding at 1 µM [36]: 77%; remaining binding at 1 µM [37]: 84%; remaining binding at 1 µM [38]: 83%; remaining binding at 1 µM [39]: 78%; remaining binding at 1 µM [40]: 84%
CCN1CCN(Cc2ccc(Nc3nc4ccc(Oc5ccnc(NC(C)=O)c5)c(C)c4n3C)cc2C(F)(F)F)CC1 [Compound I-6, N-(4-(2-(4-((4-ethylpiperazin-1-yl)methyl)-3-(trifluoromethyl)phenylamino)-1,7-dimethyl-1H-benzo[d]imidazol-6-yloxy)pyridin-2-yl)acetamide]	88	98	100	34	95	90	65	91	89	0	91	94	93	77	98	98	27	46	59	98	remaining binding at 1 µM [21]: 100%; remaining binding at 1 µM [22]: 100%; remaining binding at 1 µM [23]: 92%; remaining binding at 1 µM [24]: 71%; remaining binding at 1 µM [25]: 70%; remaining binding at 1 µM [26]: 3.2%; remaining binding at 1 µM [27]: 87%; remaining binding at 1 µM [28]: 15%; remaining binding at 1 µM [29]: 100%; remaining binding at 1 µM [30]: 100%; remaining binding at 1 µM [31]: 1.5%; remaining binding at 1 µM [32]: 0.2%; remaining binding at 1 µM [33]: 91%; remaining binding at 1 µM [34]: 87%; remaining binding at 1 µM [35]: 99%; remaining binding at 1 µM [36]: 86%; remaining binding at 1 µM [37]: 89%; remaining binding at 1 µM [38]: 93%; remaining binding at 1 µM [39]: 51%; remaining binding at 1 µM [40]: 79%
